According to paper PMC4552634, “A New Set of Chemical Starting Points with Plasmodium falciparum Transmission-Blocking Potential for Antimalarial Drug Discovery” (PLoS ONE, 2015):
Read-outs that look alike come from different tables or passages of the source.

How the values were obtained:
[1] = test system: P. falciparum stage V gametocytes; test: Gametocytocidal ATP bioluminescence assay (single point 5 μM and 1 μM, dose-response); assay type: cell-based, Plasmodium falciparum; conditions: for Ratio IC50 HepG2/IC50 P. falciparum: IC50 HepG2 divided by IC50 P. falciparum gametocytes
Description: Purified stage IV-V gametocytes were obtained as previously described [10]. Single point ATP bioluminescence assay and dose–response of positive hits was determined in accordance with the previously published protocol [10].

[2] = test system: luciferase reaction (BacTiter-Glo); test: Interference assay (inhibition of the BacTiter-Glo luciferase reaction); assay type: biochemical; parameters: concentration or dose not given beside the values; conditions: ATP interference assay
Description: To discard possible false-positive results, we performed an interference assay in parallel. […] […]. The ATP solution was made by dissolving ATP powder (ATP standard from the ATPlite 1 step assay kit, reference 6016731, Perkin Elmer) in culture medium. The positive control used was the Luciferase Inhibitor I Calbiochem (Merck, 119113) at 100 μM.

HepG2 cells = test: Cytotoxicity in HepG2 cells (intracellular ATP, ATPlite, 48 h); assay type: cell-based, human; conditions: HepG2 cells; IC50 per ratio column head; unit inferred
[3] = test system: P. falciparum asexual stages; conditions: asexual stages; TCAMS data; read-out: IC50 asexual; cited from earlier work
[4] = P. falciparum gametocytes, average, read-out: IC50 Pf Gametocytes average, IC50 (µM) average
[5] = sexual stages (gametocytes), dose-response, read-out: IC50 sexual

CC(C)(C)OC(=O)NCc1ccc(Nc2nnc(-c3ccc(OCC(=O)NCc4ccc(C(C)(C)C)cc4)c([N+](=O)[O-])c3)o2)cc1 [TCMDC-134991]
Ratio IC50 HepG2/IC50 P. falciparum [1]: 4.5 | IC50 [1, 4]: 0.7 µM | % Control luminiscence [2]: 100% | IC50 (HepG2 cells): 3150 nM | IC50 [3]: 800 nM

Nc1nc(N)c2c(ccc3c2ccn3Cc2ccc(-c3ccccc3)cc2)n1 [TCMDC-137813]
Ratio IC50 HepG2/IC50 P. falciparum [1]: 1.1 | IC50 [1, 4]: 1.45 µM | IC50 [1, 5]: 1.45 µM | % Control luminiscence [2]: 100% | IC50 (HepG2 cells): 1600 nM | IC50 [3]: 48 nM

CC(C)CNCc1ccc(-c2ccc(CN(CCCN3CCN(C)CC3)C(=O)/C=C/c3ccccc3)cc2)cc1 [TCMDC-140546]
Ratio IC50 HepG2/IC50 P. falciparum [1]: 7 | IC50 [1, 4]: 1 µM | IC50 [1, 5]: 1 µM | % Control luminiscence [2]: 100% | IC50 (HepG2 cells): 6990 nM | IC50 [3]: 917 nM

N=c1n(CCN2CCCCC2)c2ccccc2n1CC(O)c1ccc(Cl)c(Cl)c1 (stereo not drawn) [TCMDC-124064]
Ratio IC50 HepG2/IC50 P. falciparum [1]: 1.59 | IC50 [1, 4]: 3.27 µM | IC50 [1, 5]: 3.27 µM | % Control luminiscence [2]: 100% | IC50 (HepG2 cells): 5200 nM | IC50 [3]: 320 nM

COc1ccc(OC)c(-c2cccc(-c3cccc(NC(=O)c4ccc([N+](=O)[O-])o4)c3)n2)c1 [TCMDC-124799]
Ratio IC50 HepG2/IC50 P. falciparum [1]: 8 | IC50 [1, 4]: 0.78 µM | % Control luminiscence [2]: 100% | IC50 (HepG2 cells): 6150 nM | IC50 [3]: 371 nM

N=c1n(Cc2ccc(Cl)cc2)c2ccccc2n1CC(O)c1ccc(Cl)c(Cl)c1 (stereo not drawn) [TCMDC-123813]
Ratio IC50 HepG2/IC50 P. falciparum [1]: 18 | IC50 [1, 4]: 0.36 µM | IC50 [1, 5]: 0.357 µM | % Control luminiscence [2]: 99% | IC50 (HepG2 cells): 6500 nM | IC50 [3]: 677 nM

CCCCC(NCC)c1ccc(OCCOc2ccc(C(CCCC)NCC)cc2)cc1 (stereo not drawn) [TCMDC-137612]
Ratio IC50 HepG2/IC50 P. falciparum [1]: 14 | IC50 [1, 4]: 0.42 µM | IC50 [1, 5]: 0.423 µM | % Control luminiscence [2]: 100% | IC50 (HepG2 cells): 6100 nM | IC50 [3]: 930 nM

c1cc(C2=NC3CCCCC3N2)ccc1OCCCCCOc1ccc(C2=NC3CCCCC3N2)cc1 (stereo not drawn) [TCMDC-137802]
Ratio IC50 HepG2/IC50 P. falciparum [1]: 13 | IC50 [1, 4]: 0.28 µM | % Control luminiscence [2]: 100% | IC50 (HepG2 cells): 3740 nM | IC50 [3]: 228 nM

COc1ccc(C[C@H](N)C(=O)N[C@H]2[C@@H](O)[C@H](n3cnc4c(N(C)C)ncnc43)O[C@@H]2CO)cc1 [TCMDC-123927]
Ratio IC50 HepG2/IC50 P. falciparum [1]: 4 | IC50 [1, 4]: 0.65 µM | IC50 [1, 5]: 0.647 µM | % Control luminiscence [2]: 100% | IC50 (HepG2 cells): 2690 nM | IC50 [3]: 299 nM

CCCCCCCN1CC[C@@H](CCCc2ccnc3ccc(OCCN4CCNCC4)cc23)[C@@H](CC)C1 [TCMDC-139817]
Ratio IC50 HepG2/IC50 P. falciparum [1]: 12 | IC50 [1, 4]: 0.57 µM | IC50 [1, 5]: 0.567 µM | % Control luminiscence [2]: 94% | IC50 (HepG2 cells): 6750 nM | IC50 [3]: 771 nM

CN(CCCNCc1cccc2ccccc12)CCCNCc1cccc2ccccc12 [TCMDC-137905]
Ratio IC50 HepG2/IC50 P. falciparum [1]: 25 | IC50 [1, 4]: 0.23 µM | % Control luminiscence [2]: 100% | IC50 (HepG2 cells): 5720 nM | IC50 [3]: 722 nM

CCOCn1c(-c2ccccc2)cc2c3c(N)nc(N)nc3ccc21 [TCMDC-137979]
Ratio IC50 HepG2/IC50 P. falciparum [1]: 4.35 | IC50 [1, 4]: 1.3 µM | % Control luminiscence [2]: 94% | IC50 (HepG2 cells): 5650 nM | IC50 [3]: 186 nM

Cc1ccc(C(=O)Nc2ccc(Nc3ccnc4cc(-c5ccccn5)ccc34)cc2O)cc1 [TCMDC-138205]
Ratio IC50 HepG2/IC50 P. falciparum [1]: 6.48 | IC50 [1, 4]: 0.48 µM | % Control luminiscence [2]: 100% | IC50 (HepG2 cells): 3110 nM | IC50 [3]: 111 nM

CN(C)Cc1ccc(-c2cccc(Nc3nccc(NCC(O)c4ccccc4)n3)c2)cc1 (stereo not drawn) [TCMDC-136467]
Ratio IC50 HepG2/IC50 P. falciparum [1]: 6.52 | IC50 [1, 4]: 0.9 µM | % Control luminiscence [2]: 100% | IC50 (HepG2 cells): 5870 nM | IC50 [3]: 373 nM

O=C(/C=C/c1ccc(Cl)c(Cl)c1)N1CCC(CCN2CCC(c3c[nH]c4cnccc34)CC2)CC1 [TCMDC-140136]
Ratio IC50 HepG2/IC50 P. falciparum [1]: 36 | IC50 [1, 4]: 0.2 µM | % Control luminiscence [2]: 100% | IC50 (HepG2 cells): 7210 nM | IC50 [3]: 119 nM

O=C(Nc1ccc(Oc2ccccc2)cc1)N(CCN1CCCC1)Cc1ccc(-c2ccc(CN3CCNCC3)cc2)cc1 [TCMDC-139652]
Ratio IC50 HepG2/IC50 P. falciparum [1]: 7 | IC50 [1, 4]: 1.02 µM | IC50 [1, 5]: 1.01 µM | % Control luminiscence [2]: 93% | IC50 (HepG2 cells): 7080 nM | IC50 [3]: 892 nM

CC(C)CNCc1ccc(-c2ccc(CN(CCCN3CCN(C)CC3)C(=O)CCC3CCCC3)cc2)cc1 [TCMDC-140559]
Ratio IC50 HepG2/IC50 P. falciparum [1]: 10 | IC50 [1, 4]: 0.54 µM | % Control luminiscence [2]: 100% | IC50 (HepG2 cells): 5390 nM | IC50 [3]: 1060 nM

CN1CCN(CCNc2c3ccccc3nc3c2ccc2ccccc23)CC1 [TCMDC-137723]
Ratio IC50 HepG2/IC50 P. falciparum [1]: 17 | IC50 [1, 4]: 0.39 µM | IC50 [1, 5]: 0.387 µM | % Control luminiscence [2]: 100% | IC50 (HepG2 cells): 6600 nM | IC50 [3]: 606 nM
